# What was measured:
# EOC-20 microglia = test: TNFα-stimulated nitrite production in EOC-20 microglia (Griess assay); type: cell-based, mouse
# Experimental: Mouse EOC-20 microglia (American Tissue Type Collection, Gaithersville Md. USA) (Hensley et al., 2003; Walker et al., 1995) were grown in DMEM containing 20% L929 fibroblast-supplemented medium. Nitrite production by cytokine stimulated microglia was measured in cell culture medium using the Griess diazotization reaction as previously reported (Hensley et al., 2003; West et al., 2004).
# The efficacy of (R)-LKE1 and (R)-LK as inhibitors of microglial cell activation in response to pro-inflammatory cytokines is shown in FIGS. 1A & 1B. EOC-20 murine microglial cells were pretreated 30 minutes with test compounds (e.g. (R)-LK or (R)-LKE1) dissolved in DMSO and diluted 1:200 into cell culture medium; or with DMSO vehicle only. Cells were then challenged with cytokine and allowed to incubate undisturbed in the cell culture incubator for 24 h prior to Griess assay. The lanthionine ketimine ester in this case is the structure shown above as (R)-LKE1. After drug treatment cells were then stimulated with 40 ng/mL recombinant murine tumor necrosis factor alpha (TNF α) plus 50U/mL interferon gamma (IFNγ). Nitrite (NO2^−) was measured in the cell culture medium 24 hours later, as an index of nitric oxide production. Cell viability was then assayed in the same cultures using a commercially available tetrazolium reduction assay (Promega OneStep™; Promega, Gaithersburg Md.). Cell culture methods were those published by the inventor (Hensley et al., 2003; West et al., 2004).
# In a EOC-20 microglial assay the cells were stimulated with TNFα in the presence or absence of 100 microM (R)- or (S)-LK, and nitrite was measured 24 h later, the net suppression of nitrite was 13% by (S)-LK and 15% by (R)-LK.
# The reduced lanthionine ketimine (i.e., TMDCA) was also tested against TNFα-stimulated nitrite production in the EOC-20 screen.
# HT4 cells = test: glutamate toxicity in HT4 cells (LDH leakage); type: cell-based
# Experimental: (§1) FIG. 13. (R)-LK protects HT4 cells against excitotoxicity. Determination of cell viability: HT4 cells were seeded in 6 well plates (1×10^7 cell/well). After 24 h, cell media was changed and (R)-LK (in DMSO) was used for 1 h prior to glutamate challenge. Powdered (R)-LK was dissolved in DMSO just before use. The viability of cells in culture was assessed by measuring the leakage of lactate dehydrogenase (LDH) from cells to media 18-24 h following glutamate treatment using the in vitro toxicology assay kit from Sigma Chemical Co. (St. Louis, Mo., USA). LDH leakage was determined using the following equation: % of total LDH leaked=(LDH activity in the cell culture media/total LDH activity) where total LDH activity=LDH activity in cell monolayer+LDH activity of detached cells+LDH activity in the cell culture media.
# as §1, with “14. (R)-LKE1” for “13. (R)-LK”, “Determination of cell viability: HT4 cells were seeded in 6 well plates (1×10^7 cell/well). After 24 h, cell media was changed and (R)-LK (in DMSO) was used for 1 h prior to glutamate challenge. Powdered (R)-LK was dissolved in DMSO just before use.” left out, “media. […]” for “media.”
# Htt+ astroglia = test: LPS-stimulated NO2- production in Htt+ astroglia; type: cell-based, mouse; settings: LPS serotype 0127:B8
# Experimental: Primary astrocytes were cultured from neonatal R6/2 transgenic mouse pups (“Htt+”) which are the standard murine model for Huntington's disease (animals commercially obtained from Jackson Labs) or nontransgenic littermates. For RAW cell studies, RAW264.7 macrophages were obtained commercially from American Type Culture Collection. RAW 264.7 macrophages were grown in DMEM plus 10% FBS and 1% Pen/Strep. Cells were maintained in culture according to published methods. Cells were treated with +/−[…] bacterial lipopolysaccharide serotype 0127:B8 (Sigma Chemical)+/−various concentrations of (R)-LKE1 for 24-48 h. (R)-LKE1 was added 30 minutes prior to LPS challenge. Nitrite was measured in the cell culture medium using the Griess diazotization assay. Cells were lysed and Western blots performed for protein expression or in other experiments for ribonuclease protection assays.
# G93A-SOD1 mice = test: G93A-SOD1 mouse model of ALS (rotarod, weight); type: in vivo; settings: 100 mg/kg i.p. 5 days/week from day 90
# From the text: Transgenic mice. Mice expressing high copy numbers of human mutant G93A-SOD1 (SOD1^G93A mice) were obtained from Jackson Laboratories [Bar Harbor Me. USA; strain designation B6SJL-TgN-(SOD1 G93A)-1-Gur] (Hensley et al., 2002; Hensley et al., 2003; West et al., 2004; Hensley et al., 2006). Transgenic mice were maintained in the hemizygous state by mating SOD1^G93A males with B6SJL-TGN females. Animals were housed in the Oklahoma Medical Research Foundation Laboratory Animal Resource Center.
# Mice were trained to a rotarod task at 80 d of age. In this task mice were placed on a horizontal rod that rotates with acceleration at 10 rpm from rest (Hensley et al., 2002; Hensley et al., 2003; West et al., 2004). The time was recorded at which each mouse fell from the rotarod and the test was repeated four times on each trial date. The closest three performance times were averaged for each mouse on each day. For experimental drug treatments mice were injected with LKE at 100 mg/kg/day i.p. Monday-Friday beginning at 90 d. Control animals received saline vehicle. Rotarod performance and weights were recorded at 10 day intervals until death. Animals were euthanized when unable to right themselves within 10 seconds of being placed on their side, or when unable to perform the rotarod task.
smiles,measurement,setting,value
CCOC(=O)[C@@H]1CSCC(C(=O)O)=N1 [(R)-LKE1],potency at suppressing cytokine activation relative to unesterified lanthionine ketimine,EOC-20 microglia; FIG. 1A,statistically significantly more potent
same,inhibition of nitrite production,EOC-20 microglia; TNFα-stimulated EOC-20 microglia,inhibited nitrite production
same,glutamate toxicity (LDH release),HT4 cells,significantly diminished glutamate toxicity
same,NO2- produced in response to LPS,Htt+ astroglia,reduce the amount of NO2^− produced
same,rotarod performance,G93A-SOD1 mice,improved
same,weight loss,G93A-SOD1 mice,inhibited weight loss
